Measurements from patent US20260008818A1, “CYCLIC PEPTIDE OR SALT THEREOF, AND USES THEREOF” (FUJIFILM Corporation, priority 2023, published 2026).
Bridge positions count the residues as written; N and C are the ends. Ends that are not written are not given here. COCH2 = acetyl group that carries the bridge

Test system: Recombinant Human FGFR1 alpha (IIIc) Fc Chimera Protein
Assay: Binding affinity of enzymatically synthesized cyclic peptide to FGFR by ELISA
Conditions: luminescence signal at reaction concentration 10 nmol/L, SEQ ID NO: 39 standardized to 1, enzyme synthesis product
How it was run: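 Graded A–D from luminescence at 10 nmol/L peptide, expressed relative to SEQ ID NO: 39 after subtracting wells lacking receptor. Read-out used anti-Myc antibody (2 h, RT) with chemiluminescent substrate, following 3 h RT binding of peptide to immobilized FGFR1α(IIIc)-Fc, 5 ng per well.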

Row | Substance | Evaluation result of binding affinity to FGFR
1 | 69 (LCSYERLQFHGHEAPFRVK(COCH2)V; thioether 2-19 (inferred)) [compound 69] | A (0.7 or more)
2 | 49 (HCEWTQLIYYGFSAPYIVK(COCH2)R; thioether 2-19 (inferred)) [compound 49] | C (0.1 or more and less than 0.5)
3 | 206 (HCSYERLQFHGHEAPFRNK(COCH2)V; thioether 2-19 via Ac; not fully specified) [compound 206] | C (0.1 or more and less than 0.5)
4 | 263 (ICRLSWFGFKAPFWIVDSK(COCH2)Q; thioether 2-19 (inferred)) [compound 263] | B (0.5 or more and less than 0.7)
5 | 134 (HCSYHRLQFHGHEAPFRVK(COCH2)V; thioether 2-19 (inferred)) [compound 134] | A (0.7 or more)
6 | 262 (FCYQRLYFQGHIAPYWFVK(COCH2)D; thioether 2-19 (inferred)) [compound 262] | B (0.5 or more and less than 0.7)
7 | 313 (HCQWERLIFLGHIAPFWVK(COCH2)R; thioether 2-19 (inferred)) [compound 313] | C (0.1 or more and less than 0.5)
8 | 373 (CERLIFHGHEAPFWVK(COCH2); thioether 1-16) [compound 373] | A (0.7 or more)
9 | 357 (ACWLRHIYQGHQAPFLIWSTK(COCH2)Y; thioether 2-21) [compound 357] | C (0.1 or more and less than 0.5)
10 | 101 (HCSWERLQFHGHEAPFRVK(COCH2)V; thioether 2-19 (inferred)) [compound 101] | A (0.7 or more)
11 | 348 (PCTGWTPLYFFGKRAPFLVNK(COCH2)A; thioether 2-21) [compound 348] | C (0.1 or more and less than 0.5)
12 | 372 (CRLIFHGHEAPFWVK(COCH2)V; thioether 1-15) [compound 372] | C (0.1 or more and less than 0.5)
13 | 47 (SCWTQLQWQAHLAPFWTK(COCH2)V; thioether 2-18 (inferred)) [compound 47] | C (0.1 or more and less than 0.5)
14 | 122 (HCSYLRLQFHGHEAPFRVK(COCH2)V; thioether 2-19 (inferred)) [compound 122] | C (0.1 or more and less than 0.5)
15 | 127 (HCSYWRLQFHGHEAPFRVK(COCH2)V; thioether 2-19 (inferred)) [compound 127] | A (0.7 or more)
16 | 304 (HCSYERLQFHMHEAPFRVK(COCH2)V; thioether 2-19 (inferred)) [compound 304] | C (0.1 or more and less than 0.5)
17 | 369 (HASYERCIFHGHEAPFWVK(COCH2)V; thioether 7-19) [compound 369] | C (0.1 or more and less than 0.5)
18 | 80 (ECSYERLQFHGHEAPFRVKV; not fully specified; Description of Artificial Sequence: Cyclic peptide) [compound 80] | A (0.7 or more)
19 | 309 (HCSYERLQFHGHEAPFRVK(COCH2)M; thioether 2-19 (inferred)) [compound 309] | A (0.7 or more)
20 | 343 (QCWQQAYAYFPHVLAPFLVK(COCH2)S; thioether 2-20) [compound 343] | C (0.1 or more and less than 0.5)
21 | 336 (HCTYERLIFLGHIAPFWVK(COCH2)V; thioether 2-19 (inferred)) [compound 336] | B (0.5 or more and less than 0.7)
